Key:
COQ7 (His6-GB1-Nd38COQ7) = target: T1, COQ7 (His6-GB1-Nd38COQ7) (Homo sapiens, UniProt Q99807); experiment: NADH fluorescence loss; assay type: biochemical; conditions: 250 uM DMQ0, 5 uM protein, 20 mM HEPES pH 7.6, 200 mM NaCl, 30 °C
T1 sequence (Q99807 39-217): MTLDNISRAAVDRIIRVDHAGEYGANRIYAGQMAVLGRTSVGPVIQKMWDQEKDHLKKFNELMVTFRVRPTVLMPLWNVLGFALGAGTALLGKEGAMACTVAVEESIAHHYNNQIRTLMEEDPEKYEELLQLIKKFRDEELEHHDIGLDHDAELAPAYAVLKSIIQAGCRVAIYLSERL

[1] = target: T2, His6-Nd79COQ9 (human COQ9 residues 79-318 with an N-terminal His tag) (human, UniProt O75208 79-318); experiment: SEC + native gel or EMSA
T2 sequence (looked up): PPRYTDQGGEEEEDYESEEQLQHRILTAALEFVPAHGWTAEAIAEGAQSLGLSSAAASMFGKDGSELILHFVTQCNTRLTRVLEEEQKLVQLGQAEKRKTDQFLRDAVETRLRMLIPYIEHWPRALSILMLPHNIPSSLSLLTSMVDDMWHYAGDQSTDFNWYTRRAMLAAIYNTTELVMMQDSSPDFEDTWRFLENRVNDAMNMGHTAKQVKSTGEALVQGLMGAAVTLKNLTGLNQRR

Molecule: NC(=O)C1=CN([C@@H]2O[C@H](COP(=O)(O)OP(=O)(O)OC[C@H]3O[C@@H](n4cnc5c(N)ncnc54)[C@H](O)[C@@H]3O)[C@@H](O)[C@H]2O)C=CC1 [NADH]
- NADH oxidation (COQ7 (His6-GB1-Nd38COQ7)): wild type COQ7 slowly oxidized NADH and transferred electrons to a quinone acceptor

B1: GB1-Nd38COQ7 (human COQ7 residues 39-217 with N-terminal GB1 tag) (enzyme, UniProt Q99807 39-217, looked up)
chain: T1 sequence (Q99807 39-217)
- stoichiometry N [1]: 1
